In patent US20250019370A1, “L-LYSINE SALT OF 4-CHLORO-5-[4-(2,6-DICHLOROPHENYL)SULFONYLPIPERAZIN-1-YL]-1-BENZOFURAN-2-CARBOXYLIC ACID AND VARIOUS FORMS THEREOF” (ENYO PHARMA, priority 2023, published 2025):

Assays:
[1] = Solubility kinetics in FeSSIF medium; format: physicochemical; details: for Soluble fraction: 37 ° C.; for Soluble fraction / pH: listed as EYP001 L-Lysine salt (Form I); for pH: pH printed with the soluble fraction
[2] = Pharmacokinetic study Experiment #2, oral administration in rats; format: in vivo, rat; details: 50 mg EqEYP001/Kg
Method: In a second study (Experiment #2), EYP001 and EYP001 L-lysine salt Form I in aqueous formulations (0.5% CMC, 0.25% Tween 80, water) were orally administrated at a dose of 50 mg EqEYP001/Kg in 8 male rats for each compound. Blood samples were taken at 0.25 h, 0.5 h, 1 h, 2 h, 4 h, 6 h, 8 h, 12 h, and 24 h after oral administration.

[3] = Polymorph screening (solids analysed by XRPD); format: physicochemical; details: form I as starting material
Method: A polymorph screening was performed on EYP001 L-lysine salt crystalline form I (form I as starting material unless otherwise specified).
A number of unique materials with different patterns were produced, including crystalline forms I-IV and an amorphous material. All solids from the screening experiments were analysed by XRPD analysis and the resulting patterns compared to that of the reference. The observed solids and their ways of obtention are described in Table 16.

[4] = male rats, versus EYP001 free acid
[5] = Entry 1: no solvent, 23% RH stress
[6] = Entry 2: no solvent, 40° C./75% RH stress
[7] = Entry 3: no solvent, 59% RH stress
[8] = Entry 7: no solvent, melt quench
[9] = Entry 8: no solvent, compression
[10] = Entry 13: DMSO, slurry (20° C.)
[11] = Entry 14: EtOAc, slurry (5° C.)
[12] = Entry 15: water, slurry (5° C.)
[13] = Entry 16: THF, flash evaporation
[14] = Entry 17: THF, flash evaporation
[15] = Entry 18: acetone, flash evaporation
[16] = Entry 19: DMSO, flash evaporation
[17] = Entry 20: EtOAc, flash evaporation
[18] = Entry 21: IPA, flash evaporation
[19] = Entry 22: water, flash evaporation
[20] = Entry 23: MeOH, flash evaporation
[21] = Entry 24: EtOH, flash evaporation
[22] = Entry 25: heptane, flash evaporation
[23] = Entry 26: EtOH, flash evaporation
[24] = Entry 27: THF/water (82:18% v/v), flash evaporation
[25] = Entry 29: acetone, slurry (5° C.)
[26] = Entry 30: DMSO, slurry (20° C.)
[27] = Entry 31: EtOAc, slurry (5° C.)
[28] = Entry 33: water, slurry (5° C.)
[29] = Entry 36: heptane, slurry (5° C.)
[30] = Entry 37: THF/water (82:18% v/v), slurry (5° C.)
[31] = Entry 39: acetone, slurry (60° C.)
[32] = Entry 40: DMSO, slurry (60° C.)
[33] = Entry 41: EtOAc, slurry (60° C.)
[34] = Entry 43: water, slurry (60° C.)
[35] = Entry 44: MeOH, slurry (60° C.)
[36] = Entry 45: EtOH, slurry (60° C.)
[37] = Entry 46: heptane, slurry (60° C.)
[38] = Entry 47: EtOH /water (96:4% v/v), slurry (60° C.)
[39] = Entry 49: acetone, vapour stress
[40] = Entry 56: heptane, vapour stress
[41] = Entry 58: THF/water (82:18% v/v), anti-solvent THF, vapour diffusion
[42] = Entry 59: THF/water (82:18% v/v), anti-solvent IPA, vapour diffusion
[43] = Entry 60: THF/water (82:18% v/v), anti-solvent EtOAc, vapour diffusion
[44] = Entry 61: acetone/water (50:50% v/v), slow cool
[45] = Entry 62: DMSO/water (80:20% v/v), slow cool
[46] = Entry 64: IPA/water (80:20% v/v), slow cool
[47] = Entry 65: MEOH/water (84:16% v/v), slow cool
[48] = Entry 66: THF/water (82:18% v/v), slow cool
[49] = Entry 67: THF/water (82:18% v/v), crash precipitation
[50] = Entry 69: DMSO, anti-solvent EtOAc, crash precipitation
[51] = Entry 70: THF/water (82:18% v/v), temperature cycle
[52] = Entry 71: DMSO/water (80:20% v/v), temperature cycle
[53] = Entry 72: MeOH/water (84:16% v/v), temperature cycle

NCCCC[C@H](N)C(=O)O.O=C(O)c1cc2c(Cl)c(N3CCN(S(=O)(=O)c4c(Cl)cccc4Cl)CC3)ccc2o1 [EYP001 L-lysine salt Form I, L-lysine salt of 4-chloro-5-[4-(2,6-dichlorophenyl)sulfonylpiperazin-1-yl]-1-benzofuran-2-carboxylic acid]
solubility compared to EYP001 free acid and EYP001 Potassium salt ([1]; 37° C.): higher solubility | Soluble fraction ([1]; after 0.5 h): 0.44 mg/mL of EYP001 | Soluble fraction ([1]; after 1 h): 0.46 mg/mL of EYP001 | pH ([1]; after 0.5 h): (pH = 5.0) | pH ([1]; after 1 h): (pH = 5.0) | Mean AUC0-24 ([2]; male rats, aqueous formulation): 42500 ng·h/mL | Mean Cmax ([2]; male rats, aqueous formulation): 7870 ng/mL | % increase/EYP001 (AUC0-24) [2, 4]: +47% | % increase/EYP001 (Cmax) [2, 4]: +41% | exposure and C max compared to EYP001 free acid ([2]; rat): superiority | Results [3, 5]: solid | XRPD [3, 5]: Form I | Results [3, 6]: solid | XRPD [3, 6]: Form I | Results [3, 7]: solid | XRPD [3, 7]: Form I | Results [3, 8]: solid | XRPD [3, 8]: Amorphous | Results [3, 9]: solid | XRPD [3, 9]: Form I | Results ([3]; Entry 10: no solvent, milling): solid | XRPD ([3]; Entry 10: no solvent, milling): Amorphous | Results ([3]; Entry 12: THF, slurry (50° C.)): solid | XRPD ([3]; Entry 12: THF, slurry (50° C.)): Amorphous | Results [3, 10]: solid | XRPD [3, 10]: Form I | Results [3, 11]: solid | XRPD [3, 11]: Form I | Results [3, 12]: solid | XRPD [3, 12]: Form III | Results [3, 13]: no solid | XRPD [3, 13]: Amorphous | Results [3, 14]: solid | XRPD [3, 14]: Form II | Results [3, 15]: solid | XRPD [3, 15]: Amorphous | Results [3, 16]: solid | XRPD [3, 16]: Form I | Results [3, 17]: solid | XRPD [3, 17]: Amorphous | Results [3, 18]: solid | XRPD [3, 18]: Amorphous | Results [3, 19]: solid | XRPD [3, 19]: Form I | Results [3, 20]: solid | XRPD [3, 20]: Form I | Results [3, 21]: solid | XRPD [3, 21]: Form I | Results [3, 22]: solid | XRPD [3, 22]: Form II | Results [3, 23]: solid | XRPD [3, 23]: Form I | Results [3, 24]: solid | XRPD [3, 24]: Form I | Results ([3]; Entry 28: THF, slurry (5° C.)): solid | XRPD ([3]; Entry 28: THF, slurry (5° C.)): Form I | Results [3, 25]: solid | XRPD [3, 25]: Form I | Results [3, 26]: solid | XRPD [3, 26]: Amorphous | Results [3, 27]: solid | XRPD [3, 27]: Form I | Results ([3]; Entry 32: IPA, slurry (5° C.)): solid | XRPD ([3]; Entry 32: IPA, slurry (5° C.)): Form I | Results [3, 28]: solid | XRPD [3, 28]: Form III | Results ([3]; Entry 34: MeOH, slurry (5° C.)): solid | XRPD ([3]; Entry 34: MeOH, slurry (5° C.)): Form IV | Results ([3]; Entry 35: EtOH, slurry (5° C.)): solid | XRPD ([3]; Entry 35: EtOH, slurry (5° C.)): Form I | Results [3, 29]: solid | XRPD [3, 29]: Amorphous | Results [3, 30]: solid | XRPD [3, 30]: Form I | Results ([3]; Entry 38: THF, slurry (60° C.)): solid | XRPD ([3]; Entry 38: THF, slurry (60° C.)): Form I | Results [3, 31]: solid | XRPD [3, 31]: Amorphous | Results [3, 32]: solid | XRPD [3, 32]: Form I | Results [3, 33]: solid | XRPD [3, 33]: Form I | Results ([3]; Entry 42: IPA, slurry (60° C.)): solid | XRPD ([3]; Entry 42: IPA, slurry (60° C.)): Form I | Results [3, 34]: solid | XRPD [3, 34]: Form III | Results [3, 35]: solid | XRPD [3, 35]: Form I | Results [3, 36]: solid | XRPD [3, 36]: Form I | Results [3, 37]: solid | XRPD [3, 37]: Amorphous | Results [3, 38]: solid | XRPD [3, 38]: Form I | Results ([3]; Entry 48: THF, vapour stress): solid | XRPD ([3]; Entry 48: THF, vapour stress): Amorphous | Results [3, 39]: solid | XRPD [3, 39]: Amorphous | Results ([3]; Entry 50: DMSO, vapour stress): solid | XRPD ([3]; Entry 50: DMSO, vapour stress): Amorphous | Results ([3]; Entry 51: EtOAc, vapour stress): solid | XRPD ([3]; Entry 51: EtOAc, vapour stress): Form I | Results ([3]; Entry 52: IPA, vapour stress): solid | XRPD ([3]; Entry 52: IPA, vapour stress): Form I | Results ([3]; Entry 53: water, vapour stress): solid | XRPD ([3]; Entry 53: water, vapour stress): Form I | Results ([3]; Entry 54: MeOH, vapour stress): solid | XRPD ([3]; Entry 54: MeOH, vapour stress): Form I | Results ([3]; Entry 55: EtOH, vapour stress): solid | XRPD ([3]; Entry 55: EtOH, vapour stress): Form I | Results [3, 40]: solid | XRPD [3, 40]: Amorphous | Results ([3]; Entry 57: THF/water (82:18% v/v), vapour stress): solution | Results [3, 41]: solid | XRPD [3, 41]: Form I | Results [3, 42]: solid | XRPD [3, 42]: Form I | Results [3, 43]: solid | XRPD [3, 43]: Form I | Results [3, 44]: solid | XRPD [3, 44]: Form I | Results [3, 45]: solid | XRPD [3, 45]: Form I | Results ([3]; Entry 63: water, slow cool): solid | XRPD ([3]; Entry 63: water, slow cool): Form III | Results [3, 46]: solid | XRPD [3, 46]: Form I | Results [3, 47]: solid | XRPD [3, 47]: Form I | Results [3, 48]: solid | XRPD [3, 48]: Form I | Results [3, 49]: solid | XRPD [3, 49]: Form I | Results ([3]; Entry 68: DMSO, anti-solvent THF, crash precipitation): no solid | Results [3, 50]: solid | XRPD [3, 50]: Amorphous | Results [3, 51]: solid | XRPD [3, 51]: Form I | Results [3, 52]: solid | XRPD [3, 52]: Form I | Results [3, 53]: solid | XRPD [3, 53]: Form I
